Where a SMILES comes first, the peptide text is derived from it. Bridges are numbered along the chain shown (N, C = ends).
Test: Determination of the protein binding (90% serum, 30 kDa filter, HPLC)
Assay type: in vitro ADME
Conditions: serum
Procedure: Protein binding assays were performed as follows. The purified peptides were mixed with 90% serum and centrifuged through a 30 kDa filter. The ultra-filtrate and the non filtrated serum samples were quantified by HPLC measurements and the protein binding was subsequently calculated.

Row | Structure (SMILES) | fraction unbound
1 | CC(C)[C@@H]1NC(=O)[C@H](CCCNC(=N)N)NC(=O)[C@H](Cc2c[nH]cn2)NC(=O)CNC(=O)[C@H](CC(N)=O)NC(=O)[C@H](CCCNC(=N)N)NC(=O)[C@H](Cc2ccc(O)cc2)NC(=O)[C@H](C(C)C)NC(=O)[C@@H]2CSSC[C@H](NC1=O)C(=O)N[C@@H](Cc1c[nH]cn1)C(=O)N[C@@H](CCCNC(=N)N)C(=O)N[C@@H](CCCNC(=N)N)C(=O)N[C@H](C(=O)N[C@@H](CC(N)=O)C(=O)O)CSSC[C@H](NC(=O)[C@H](Cc1ccccc1)NC(=O)CN)C(=O)N[C@@H](Cc1c[nH]c3ccccc13)C(=O)N[C@@H](CC(N)=O)C(=O)N[C@@H](C(C)C)C(=O)N2 [compound 237] (H-GFCWNVCVYRNGHRVCHRRCN-OH; disulfide 3-20, 7-16 (inferred); N-terminus and C-terminus assumed) | 0.6
2 | CC(C)[C@@H]1NC(=O)[C@H](CCCNC(=N)N)NC(=O)[C@H](CCCNC(=N)N)NC(=O)CNC(=O)[C@H](CC(N)=O)NC(=O)[C@H](CCCNC(=N)N)NC(=O)[C@H](Cc2ccc(O)cc2)NC(=O)[C@H](C(C)C)NC(=O)[C@@H]2CSSC[C@H](NC1=O)C(=O)N[C@@H](Cc1c[nH]cn1)C(=O)N[C@@H](CCCNC(=N)N)C(=O)N[C@@H](CCCNC(=N)N)C(=O)N[C@H](C(=O)N[C@@H](CC(N)=O)C(=O)O)CSSC[C@H](NC(=O)[C@H](Cc1ccccc1)NC(=O)CN)C(=O)N[C@@H](Cc1c[nH]c3ccccc13)C(=O)N[C@@H](CC(N)=O)C(=O)N[C@@H](C(C)C)C(=O)N2 [compound 239] (H-GFCWNVCVYRNGRRVCHRRCN-OH; disulfide 3-20, 7-16 (inferred); N-terminus and C-terminus assumed) | 0.35
3 | CC(C)[C@@H]1NC(=O)[C@H](CCCNC(=N)N)NC(=O)[C@H](Cc2ccc(O)cc2)NC(=O)CNC(=O)[C@H](CC(N)=O)NC(=O)[C@H](CCCNC(=N)N)NC(=O)[C@H](Cc2ccc(O)cc2)NC(=O)[C@H](C(C)C)NC(=O)[C@@H]2CSSC[C@H](NC1=O)C(=O)N[C@@H](Cc1c[nH]cn1)C(=O)N[C@@H](CCCNC(=N)N)C(=O)N[C@@H](CCCNC(=N)N)C(=O)N[C@H](C(=O)N[C@@H](CC(N)=O)C(=O)O)CSSC[C@H](NC(=O)[C@H](Cc1ccccc1)NC(=O)CN)C(=O)N[C@@H](Cc1c[nH]c3ccccc13)C(=O)N[C@@H](CC(N)=O)C(=O)N[C@@H](C(C)C)C(=O)N2 [compound 242] (H-GFCWNVCVYRNGYRVCHRRCN-OH; disulfide 3-20, 7-16 (inferred); N-terminus and C-terminus assumed) | 0.17
4 | CC(C)[C@@H]1NC(=O)CNC(=O)[C@H](CC(N)=O)NC(=O)[C@H](CCCNC(=N)N)NC(=O)[C@H](Cc2ccc(O)cc2)NC(=O)[C@H](C(C)C)NC(=O)[C@@H]2CSSC[C@H](NC(=O)[C@H](Cc3ccccc3)NC(=O)[C@H](CCCNC(=N)N)NC1=O)C(=O)N[C@@H](Cc1c[nH]cn1)C(=O)N[C@@H](CCCNC(=N)N)C(=O)N[C@@H](CCCNC(=N)N)C(=O)N[C@H](C(=O)N[C@@H](CC(N)=O)C(=O)O)CSSC[C@H](NC(=O)[C@H](Cc1ccccc1)NC(=O)CN)C(=O)N[C@@H](Cc1c[nH]c3ccccc13)C(=O)N[C@@H](CC(N)=O)C(=O)N[C@@H](C(C)C)C(=O)N2 [compound 245] (H-GFCWNVCVYRNGVRFCHRRCN-OH; disulfide 3-20, 7-16 (inferred); N-terminus and C-terminus assumed) | 0.15
5 | CC(C)[C@@H]1NC(=O)CNC(=O)[C@H](CC(N)=O)NC(=O)[C@H](CCCNC(=N)N)NC(=O)[C@H](Cc2ccc(O)cc2)NC(=O)[C@H](C(C)C)NC(=O)[C@@H]2CSSC[C@H](NC(=O)CNC(=O)[C@H](CCCNC(=N)N)NC1=O)C(=O)N[C@@H](Cc1c[nH]cn1)C(=O)N[C@@H](CCCNC(=N)N)C(=O)N[C@@H](CCCNC(=N)N)C(=O)N[C@H](C(=O)N[C@@H](CC(N)=O)C(=O)O)CSSC[C@H](NC(=O)[C@H](Cc1ccccc1)NC(=O)CN)C(=O)N[C@@H](Cc1c[nH]c3ccccc13)C(=O)N[C@@H](CC(N)=O)C(=O)N[C@@H](C(C)C)C(=O)N2 [compound 246] (H-GFCWNVCVYRNGVRGCHRRCN-OH; disulfide 3-20, 7-16 (inferred); N-terminus and C-terminus assumed) | 0.21
6 | CC[C@H](C)[C@@H]1NC(=O)[C@H](CCCNC(=N)N)NC(=O)[C@H](C(C)C)NC(=O)CNC(=O)[C@H](CC(N)=O)NC(=O)[C@H](CCCNC(=N)N)NC(=O)[C@H](Cc2ccc(O)cc2)NC(=O)[C@H](C(C)C)NC(=O)[C@@H]2CSSC[C@H](NC1=O)C(=O)N[C@@H](Cc1c[nH]cn1)C(=O)N[C@@H](CCCNC(=N)N)C(=O)N[C@@H](CCCNC(=N)N)C(=O)N[C@H](C(=O)N[C@@H](CC(N)=O)C(=O)O)CSSC[C@H](NC(=O)[C@H](Cc1ccccc1)NC(=O)CN)C(=O)N[C@@H](Cc1c[nH]c3ccccc13)C(=O)N[C@@H](CC(N)=O)C(=O)N[C@@H](C(C)C)C(=O)N2 [compound 248] (H-GFCWNVCVYRNGVRICHRRCN-OH; disulfide 3-20, 7-16 (inferred); N-terminus and C-terminus assumed) | 0.42
7 | CC(C)C[C@@H]1NC(=O)[C@H](CCCNC(=N)N)NC(=O)[C@H](C(C)C)NC(=O)CNC(=O)[C@H](CC(N)=O)NC(=O)[C@H](CCCNC(=N)N)NC(=O)[C@H](Cc2ccc(O)cc2)NC(=O)[C@H](C(C)C)NC(=O)[C@@H]2CSSC[C@H](NC1=O)C(=O)N[C@@H](Cc1c[nH]cn1)C(=O)N[C@@H](CCCNC(=N)N)C(=O)N[C@@H](CCCNC(=N)N)C(=O)N[C@H](C(=O)N[C@@H](CC(N)=O)C(=O)O)CSSC[C@H](NC(=O)[C@H](Cc1ccccc1)NC(=O)CN)C(=O)N[C@@H](Cc1c[nH]c3ccccc13)C(=O)N[C@@H](CC(N)=O)C(=O)N[C@@H](C(C)C)C(=O)N2 [compound 249] (H-GFCWNVCVYRNGVRLCHRRCN-OH; disulfide 3-20, 7-16 (inferred); N-terminus and C-terminus assumed) | 0.17
8 | CC(C)[C@@H]1NC(=O)CNC(=O)[C@H](CC(N)=O)NC(=O)[C@H](CCCNC(=N)N)NC(=O)[C@H](Cc2ccc(O)cc2)NC(=O)[C@H](C(C)C)NC(=O)[C@@H]2CSSC[C@H](NC(=O)[C@H](CC(N)=O)NC(=O)[C@H](CCCNC(=N)N)NC1=O)C(=O)N[C@@H](Cc1c[nH]cn1)C(=O)N[C@@H](CCCNC(=N)N)C(=O)N[C@@H](CCCNC(=N)N)C(=O)N[C@H](C(=O)N[C@@H](CC(N)=O)C(=O)O)CSSC[C@H](NC(=O)[C@H](Cc1ccccc1)NC(=O)CN)C(=O)N[C@@H](Cc1c[nH]c3ccccc13)C(=O)N[C@@H](CC(N)=O)C(=O)N[C@@H](C(C)C)C(=O)N2 [compound 251] (H-GFCWNVCVYRNGVRNCHRRCN-OH; disulfide 3-20, 7-16 (inferred); N-terminus and C-terminus assumed) | 0.29
9 | CC(C)[C@@H]1NC(=O)CNC(=O)[C@H](CC(N)=O)NC(=O)[C@H](CCCNC(=N)N)NC(=O)[C@H](Cc2ccc(O)cc2)NC(=O)[C@H](C(C)C)NC(=O)[C@@H]2CSSC[C@H](NC(=O)[C@H](CCCNC(=N)N)NC(=O)[C@H](CCCNC(=N)N)NC1=O)C(=O)N[C@@H](Cc1c[nH]cn1)C(=O)N[C@@H](CCCNC(=N)N)C(=O)N[C@@H](CCCNC(=N)N)C(=O)N[C@H](C(=O)N[C@@H](CC(N)=O)C(=O)O)CSSC[C@H](NC(=O)[C@H](Cc1ccccc1)NC(=O)CN)C(=O)N[C@@H](Cc1c[nH]c3ccccc13)C(=O)N[C@@H](CC(N)=O)C(=O)N[C@@H](C(C)C)C(=O)N2 [compound 252] (H-GFCWNVCVYRNGVRRCHRRCN-OH; disulfide 3-20, 7-16 (inferred); N-terminus and C-terminus assumed) | 0.24
10 | CC(C)[C@@H]1NC(=O)CNC(=O)[C@H](CC(N)=O)NC(=O)[C@H](CCCNC(=N)N)NC(=O)[C@H](Cc2ccc(O)cc2)NC(=O)[C@H](C(C)C)NC(=O)[C@@H]2CSSC[C@H](NC(=O)[C@H](Cc3c[nH]c4ccccc34)NC(=O)[C@H](CCCNC(=N)N)NC1=O)C(=O)N[C@@H](Cc1c[nH]cn1)C(=O)N[C@@H](CCCNC(=N)N)C(=O)N[C@@H](CCCNC(=N)N)C(=O)N[C@H](C(=O)N[C@@H](CC(N)=O)C(=O)O)CSSC[C@H](NC(=O)[C@H](Cc1ccccc1)NC(=O)CN)C(=O)N[C@@H](Cc1c[nH]c3ccccc13)C(=O)N[C@@H](CC(N)=O)C(=O)N[C@@H](C(C)C)C(=O)N2 [compound 253] (H-GFCWNVCVYRNGVRWCHRRCN-OH; disulfide 3-20, 7-16 (inferred); N-terminus and C-terminus assumed) | 0.06
11 | CC(C)[C@@H]1NC(=O)CNC(=O)[C@H](CC(N)=O)NC(=O)[C@H](CCCNC(=N)N)NC(=O)[C@H](Cc2ccc(O)cc2)NC(=O)[C@H](C(C)C)NC(=O)[C@@H]2CSSC[C@H](NC(=O)[C@H](Cc3ccc(O)cc3)NC(=O)[C@H](CCCNC(=N)N)NC1=O)C(=O)N[C@@H](Cc1c[nH]cn1)C(=O)N[C@@H](CCCNC(=N)N)C(=O)N[C@@H](CCCNC(=N)N)C(=O)N[C@H](C(=O)N[C@@H](CC(N)=O)C(=O)O)CSSC[C@H](NC(=O)[C@H](Cc1ccccc1)NC(=O)CN)C(=O)N[C@@H](Cc1c[nH]c3ccccc13)C(=O)N[C@@H](CC(N)=O)C(=O)N[C@@H](C(C)C)C(=O)N2 [compound 254] (H-GFCWNVCVYRNGVRYCHRRCN-OH; disulfide 3-20, 7-16 (inferred); N-terminus and C-terminus assumed) | 0.23
12 | CC(C)[C@@H]1NC(=O)CNC(=O)[C@H](CC(N)=O)NC(=O)[C@H](CCCNC(=N)N)NC(=O)[C@H](CCCCN)NC(=O)[C@H](C(C)C)NC(=O)[C@@H]2CSSC[C@H](NC(=O)[C@H](C(C)C)NC(=O)[C@H](CCCNC(=N)N)NC1=O)C(=O)N[C@@H](Cc1ccc(O)cc1)C(=O)N[C@@H](CCCNC(=N)N)C(=O)N[C@@H](CCCNC(=N)N)C(=O)N[C@H](C(=O)N[C@@H](CC(N)=O)C(=O)O)CSSC[C@H](NC(=O)[C@H](Cc1ccccc1)NC(=O)CN)C(=O)N[C@@H](Cc1c[nH]c3ccccc13)C(=O)N[C@@H](CC(N)=O)C(=O)N[C@@H](C)C(=O)N2 [compound 258] (H-GFCWNACVKRNGVRVCYRRCN-OH; disulfide 3-20, 7-16 (inferred); N-terminus and C-terminus assumed) | 0.11

Source: US20160158317A1, “Antimicrobial Peptide Variants and Polynucleotides Encoding Same” (Adenium Biotech A/S, priority 2010, published 2016)
